# Target: MCH receptor (Homo sapiens, UniProt Q99705)
# Test: High throughput functional screening FLIPR/FDSS6000: inhibition of MCH-evoked intracellular Ca2+ changes
# Format: cell-based
# Conditions: class by percent of control at 10^-7 M or IC50
# Summary of the method: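 Cells expressing constitutively active MCH receptor, loaded with 4 μM Fluo4-AM for 1 h at 37 °C, were pretreated 3 min with compound, then challenged with MCH (50 nM for antagonist testing). MCH-evoked [Ca2+]i transients followed by FLIPR or FDSS (ex 488/em 530 nm) over 290 s.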
row,Compound,class
1,"N-(2,5-dimethylphenyl)-N′-[(cis-4-{[4-(dimethylamino)quinazolin-2-yl]amino}cyclohexyl)methyl]urea [compound 480]",2 (Class 2: The value of percent of control at 10^−7 M was from 40% to 60% or the value of IC50 was from 50 nM to 200 nM.)
2,"N-(3,5-difluorobenzyl)-N′-[(cis-4-{[4-(dimethylamino)quinazolin-2-yl]amino}cyclohexyl)methyl]urea [compound 524]",1 (Class 1: The value of percent of control at 10^−7 M was less than 40% or the value of IC50 was less than 50 nM.)
3,"N-[(cis-4-{[4-(dimethylamino)quinazolin-2-yl]amino}cyclohexyl)methyl]-N′-(2,4,6-tribromophenyl)urea [compound 475]",1 (Class 1: The value of percent of control at 10^−7 M was less than 40% or the value of IC50 was less than 50 nM.)
4,N-[(cis-4-{[4-(dimethylamino)quinazolin-2-yl]amino}cyclohexyl)methyl]-N′-(2-methoxy-4-nitrophenyl)urea [compound 507],2 (Class 2: The value of percent of control at 10^−7 M was from 40% to 60% or the value of IC50 was from 50 nM to 200 nM.)
5,N-[(cis-4-{[4-(dimethylamino)quinazolin-2-yl]amino}cyclohexyl)methyl]-N′-(2-methoxy-5-nitrophenyl)urea [compound 508],2 (Class 2: The value of percent of control at 10^−7 M was from 40% to 60% or the value of IC50 was from 50 nM to 200 nM.)

# Same assay, conditions: class by percent of control at 10^-7 M or by IC50; read-out: class
row,Compound,IC50
1,CN(C)c1nc(N[C@H]2CC[C@@H](NC(=O)Oc3cccc(C(F)(F)F)c3)CC2)nc2ccccc12 [compound 849],> 200 nM
2,CN(C)c1nc(N[C@H]2CC[C@@H](NC(=O)Oc3ccc(Br)cc3)CC2)nc2ccccc12 [compound 850],> 200 nM
3,COc1ccccc1OC(=O)N[C@H]1CC[C@@H](Nc2nc(N(C)C)c3ccccc3n2)CC1 [compound 851],> 200 nM
4,COCCOC(=O)N[C@H]1CC[C@@H](Nc2nc(N(C)C)c3ccccc3n2)CC1 [compound 852],> 200 nM
5,CCCCCCCCOC(=O)N[C@H]1CC[C@@H](Nc2nc(N(C)C)c3ccccc3n2)CC1 [compound 853],> 200 nM
6,CCOC(=O)N[C@H]1CC[C@@H](Nc2nc(N(C)C)c3ccccc3n2)CC1 [compound 854],> 200 nM
7,CN(C)c1nc(N[C@H]2CC[C@@H](NC(=O)OCc3ccc([N+](=O)[O-])cc3)CC2)nc2ccccc12 [compound 855],< 50 nM
8,CN(C)c1nc(N[C@H]2CC[C@@H](NC(=O)Oc3ccc4ccccc4c3)CC2)nc2ccccc12 [compound 856],> 200 nM
9,C=CCOC(=O)N[C@H]1CC[C@@H](Nc2nc(N(C)C)c3ccccc3n2)CC1 [compound 857],> 200 nM
10,CN(C)c1nc(N[C@H]2CC[C@@H](NC(=O)OCc3ccccc3)CC2)nc2ccccc12 [compound 858],50 to 200 nM
11,CN(C)c1nc(N[C@H]2CC[C@@H](NC(=O)Oc3ccccc3)CC2)nc2ccccc12 [compound 859],> 200 nM
12,CC(C)[C@@H]1CC[C@@H](C)C[C@H]1OC(=O)N[C@H]1CC[C@@H](Nc2nc(N(C)C)c3ccccc3n2)CC1 [compound 860],> 200 nM
13,Cc1ccc(OC(=O)N[C@H]2CC[C@@H](Nc3nc(N(C)C)c4ccccc4n3)CC2)cc1 [compound 861],> 200 nM
14,COC(=O)N[C@H]1CC[C@@H](Nc2nc(N(C)C)c3ccccc3n2)CC1 [compound 862],> 200 nM
15,CN(C)c1nc(N[C@H]2CC[C@@H](NC(=O)OCc3ccccc3Cl)CC2)nc2ccccc12 [compound 863],50 to 200 nM
16,CN(C)c1nc(N[C@H]2CC[C@@H](NC(=O)OCC3c4ccccc4-c4ccccc43)CC2)nc2ccccc12 [compound 864],> 200 nM
17,CN(C)c1nc(N[C@H]2CC[C@@H](NC(=O)OCC(Cl)(Cl)Cl)CC2)nc2ccccc12 [compound 865],> 200 nM
18,CN(C)c1nc(N[C@H]2CC[C@@H](CNC(=O)OCCOCc3ccccc3)CC2)nc2ccccc12 [compound 866],> 200 nM
19,CN(C)c1nc(N[C@H]2CC[C@@H](CNC(=O)OCC(C)(C)C)CC2)nc2ccccc12 [compound 867],> 200 nM

row,Compound,IC50
1,COc1cc(COC(=O)NC[C@H]2CC[C@@H](Nc3nc(N(C)C)c4ccccc4n3)CC2)c([N+](=O)[O-])cc1OC [compound 868],> 200 nM
2,CN(C)c1nc(N[C@H]2CC[C@@H](CNC(=O)Oc3cccc(C(F)(F)F)c3)CC2)nc2ccccc12 [compound 869],> 200 nM
3,CN(C)c1nc(N[C@H]2CC[C@@H](CNC(=O)Oc3ccc(Br)cc3)CC2)nc2ccccc12 [compound 870],> 200 nM
4,COc1ccccc1OC(=O)NC[C@H]1CC[C@@H](Nc2nc(N(C)C)c3ccccc3n2)CC1 [compound 871],> 200 nM
5,COCCOC(=O)NC[C@H]1CC[C@@H](Nc2nc(N(C)C)c3ccccc3n2)CC1 [compound 872],> 200 nM
6,CCCCCCCCOC(=O)NC[C@H]1CC[C@@H](Nc2nc(N(C)C)c3ccccc3n2)CC1 [compound 873],> 200 nM
7,CCOC(=O)NC[C@H]1CC[C@@H](Nc2nc(N(C)C)c3ccccc3n2)CC1 [compound 874],> 200 nM
8,CN(C)c1nc(N[C@H]2CC[C@@H](CNC(=O)OCc3ccc([N+](=O)[O-])cc3)CC2)nc2ccccc12 [compound 875],50 to 200 nM
9,CN(C)c1nc(N[C@H]2CC[C@@H](CNC(=O)Oc3ccc4ccccc4c3)CC2)nc2ccccc12 [compound 876],> 200 nM
10,C=CCOC(=O)NC[C@H]1CC[C@@H](Nc2nc(N(C)C)c3ccccc3n2)CC1 [compound 877],> 200 nM
11,CN(C)c1nc(N[C@H]2CC[C@@H](CNC(=O)OCc3ccccc3)CC2)nc2ccccc12 [compound 878],50 to 200 nM
12,CN(C)c1nc(N[C@H]2CC[C@@H](CNC(=O)Oc3ccccc3)CC2)nc2ccccc12 [compound 879],> 200 nM
13,CC1CCC(C(C)C)C(OC(=O)NCC2CCC(Nc3nc(N(C)C)c4ccccc4n3)CC2)C1 (stereo not drawn) [compound 880],> 200 nM
14,Cc1ccc(OC(=O)NC[C@H]2CC[C@@H](Nc3nc(N(C)C)c4ccccc4n3)CC2)cc1 [compound 881],> 200 nM
15,COC(=O)NC[C@H]1CC[C@@H](Nc2nc(N(C)C)c3ccccc3n2)CC1 [compound 882],> 200 nM
16,CN(C)c1nc(N[C@H]2CC[C@@H](CNC(=O)OCc3ccccc3Cl)CC2)nc2ccccc12 [compound 883],50 to 200 nM
17,CN(C)c1nc(N[C@H]2CC[C@@H](CNC(=O)OCC3c4ccccc4-c4ccccc43)CC2)nc2ccccc12 [compound 884],> 200 nM
18,CN(C)c1nc(N[C@H]2CC[C@@H](CNC(=O)OCC(Cl)(Cl)Cl)CC2)nc2ccccc12 [compound 885],> 200 nM
19,N-[3-(dimethylamino)propyl]-N′-[(cis-4-{[4-(dimethylamino)-quinazolin-2-yl]amino}cyclohexyl)methyl]thiourea [compound 807],> 200 nM

# Same assay, conditions: class by percent of control at 10^−7 M or by IC50; read-out: class
row,Compound,IC50
1,"N-(cis-4-{[4-(dimethylamino)quinazolin-2-yl]amino}cyclohexyl)-6-(3,4,5-trimethoxyphenoxy)nicotinamide [Example 1067]",50 to 200 nM
2,N-(cis-4-{[4-(dimethylamino)quinazolin-2-yl]amino}cyclohexyl)-6-(3-methylphenoxy)nicotinamide [Example 1055],< 50 nM

# — US20070010671A1, “Novel quinazoline derivatives and methods of treatment related to the use thereof” (priority 2003, published 2007)
